Patent publication US20240350467A1, “[6R]-MTHF IN B6 ENHANCED 5-FU BASED CHEMOTHERAPY OF PANCREATIC CANCER” (Isofol Medical AB, priority 2023, published 2024)
Like-named read-outs stand apart in the source and are kept apart here. Each block holds one molecule with its values, some of them ahead of it.

How the values were obtained:
[1] = [6R]-MTHF levels after arfolitixorin versus comparable leucovorin treatment; assay type: in vivo
Excerpt: Leucovorin and l-leucovorin, both currently approved for treatment of gastrointestinal and other cancers, need to be metabolically activated to [6R]-MTHF to potentiate the effect of 5-FU. This dependency on cellular activation provides a hurdle for reaching sufficient levels of the active [6R]-MTHF. […] Secondly, the enzymatic activation is genetically regulated^16,18, and is therefore associated with variability between individuals and conditions. Arfolitoxirin is believed to be efficacious in a larger proportion of patients with less inter- and intra-individual variability. These differences may potentially turn out to be of significant importance for increased clinical efficacy in 5-FU based cancer treatment.

[2] = Stability of [6R]-5,10-MTHF forms; assay type: physicochemical
Excerpt: Arfolitixorin (former Modufolin®) is a folate-based biomodulator developed by applicant to improve the outcome of a range of antimetabolite treatments used within oncology. One of the therapeutic areas of specific interest included in the development program of arfolitixorin is as biomodulator of 5-fluorouracil (5-FU) activity in standard treatment regime for advanced, metastatic CRC, such as Stage IV. A stable lyophilizate formulation of the naturally occurring diastereoisomeric folate [6R]-5,10-MTHF has successfully been made from the drug substance arfolitixorin hemisulfate. […] As mentioned in the background section of the present application, [6R]-5,10-methylenetetrahydrofolate, abbreviated herein as [6R]-5,10-MTHF, needs to be metabolically formed when using the widely used folate-based drugs leucovorin and levoleucovorin.

[3] = cited from earlier work
[4] = cited from earlier work; remark: listed apart in the source
[5] = in vivo; cited from earlier work
[6] = system: metastatic pancreatic cancer; conditions: PRODIGE 4, 342 patients enrolled; cited from earlier work
[7] = system: metastatic pancreatic cancer; conditions: MPACT study; cited from earlier work
[8] = system: metastatic pancreatic cancer; conditions: standard first-line treatment until 2011; cited from earlier work
[9] = in vitro; cited from earlier work

[6R]-MTHF levels relative to comparable treatment with leucovorin [1]: 3-4 times
stability [2]: very unstable
Molecule: Nc1nc2c(c(=O)[nH]1)N1CN(c3ccc(C(=O)N[C@@H](CCC(=O)O)C(=O)O)cc3)C[C@H]1CN2 [Arfolitixorin, [6R]-5,10-methylenetetrahydrofolate]

Molecule: Cc1ncc(CO)c(CO)c1O.Cl [Pyridoxine hydrochloride]
solubility in water [3]: One gram dissolves in 5 mL of water
stability in air ([4]; air): stable in air
stability to sunlight ([4]; sunlight): slowly affected by sunlight

stability [2]: unexpectedly stable salt
Molecule: Nc1nc2c(c(=O)[nH]1)N1CN(c3ccc(C(=O)N[C@@H](CCC(=O)O)C(=O)O)cc3)C[C@H]1CN2.Nc1nc2c(c(=O)[nH]1)N1CN(c3ccc(C(=O)N[C@@H](CCC(=O)O)C(=O)O)cc3)C[C@H]1CN2.O=S(=O)(O)O [arfolitixorin hemisulfate]

Molecule: Nc1nc2c(c(=O)[nH]1)N(C=O)[C@H](CNc1ccc(C(=O)N[C@@H](CCC(=O)O)C(=O)O)cc1)CN2 [d-LV]
excretion by the kidneys [5]: slowly excreted

Molecule: Nc1ccn([C@@H]2O[C@H](CO)[C@@H](O)C2(F)F)c(=O)n1 [gemcitabine]
median overall survival (mOS) [6]: 6.8 months
objective response rate (ORR) [6]: 9.4%
ORR [7]: 7%
mOS [7]: 6.7 months
median overall survival (mOS) [8]: about 6 months

Molecule: Nc1nc(=O)c2c([nH]1)NC[C@H](CNc1ccc(C(=O)N[C@@H](CCC(=O)O)C(=O)O)cc1)N2C=O [l-LV, [6S]-5-formyl-THF]
conversion to methyl-tetrahydrofolate form [9]: rapidly converted

Molecule: FOLFIRINOX
median overall survival (mOS) [6]: 11.1 months
objective response rate (ORR) [6]: 31.6%
